Test results reported in patent EP0421697A2, “Contrast agents and methods for enhancing magnetic resonance imaging” (SMITHKLINE BEECHAM CORPORATION, priority 1989, dated 1991).

What was measured:
[1] = system: normal rat kidney; experiment: MR imaging of rat kidney after i.v. bolus of Yb-DTPA (signal intensity ratio Ipapilla/Imuscle over time); type: in vivo, rats; settings: 1 ml of a 50 mM solution in saline, GE SIGNA 1.5T, images every 20 seconds, Figure 1
Description: After administration of the chelate solution to the subject, imaging with any conventional MR imaging system may be begun. Preferably, a fast imaging sequence, such as gradient echo imaging is used. […] This graph plots the ratio of signal intensity of region of interest to signal intensity of surrounding muscle tissue over time, as shown, for example in Figure 1, discussed below.
As in the above comparative example, rats were provided with an infusion line and strapped in an MRI magnet GE SIGNA 1.5T. 1 ml of a 50 mM solution of Yb-DTPA in saline was injected (intravenously) as a bolus. Images were collected every 20 seconds and the signal intensity from the rat papilla (Ipapilla) and signal intensity for the surrounding rat muscle (Imuscle) were measured. […] The area under the curve is an index of GFR.

[2] = design: species or system Male Sprague-Dawley rats; settings: rat, in vivo
Procedure: Male Sprague-Dawley rats (200 to 350 g; Charles River Breeding Laboratories, Raleigh, NC) were anesthetized with Inactin (100 mg/kg, i.p.; Byk Gulden). A jugular vein and femoral artery were isolated and cannulated with PE-50 polyethylene tubing (Clay-Adams). The femoral artery cannula was connected to a pressure transducer (Gould-Statham Model P23id) for blood pressure and heart rate recording. The jugular vein cannula was connected to an infusion pump (Sage Model 352) and an infusion of inulin (Inutest, Laevasan-Gesellschaft; 10% in 0.9% NaCl) and ytterbium-diethyltriaminepentaacetic acid (Yb-DTPA in water 6.0 mg/ml) was initiated at a rate of […]. […]
Urine volumes were measured gravimetrically (specific gravity = 1) and 50 µl was removed for determination of inulin and Yb-DTPA concentrations. Inulin concentrations in plasma and urine samples were determined according to the method of Heyrosky (1956). Yb concentrations were determined by inductively-coupled plasma emission spectrometry using a Model JY-38P (Instruments SA, Inc.) and a grating of 3600 lines/mm. The 369.42 nm Yb line and 5 one-second measurements were taken at the end of each sample aspiration to provide an average reading (Bumbier, et al., 1984). […] Plasma concentrations of inulin and Yb-DTPA for C₂ were estimated from values measured for C₁ and C₃. […]

Substance: ytterbium-diethylenetriamine pentaacetic acid [Yb-DTPA]
- ratio of signal intensities Ipapilla/Imuscle against time [1]: sharp decrease in the ratio and the slow rise
- Mean (± SEM) renal clearance (Cin, CYb) [2]: 1101 ± 47
- share of renal elimination via glomerular filtration [2]: ~85%
